Test results taken from ChEMBL document CHEMBL3526097, “Preclinical disposition of GDC-0973 and prospective and retrospective analysis of human dose and efficacy predictions” (Drug Metab Dispos, 2012).

Experiment: Efflux ratio of permeability from […] side in MDCK1 cells expressing MDR1 at 10 uM after 2 hrs by LC-MS/MS analysis
Format: ADME, cell-based, Canis lupus familiaris
Details: dog, mdck1, 2 h

C[C@H]1O[C@@H](O[C@H]2[C@@H](O)C[C@H](O[C@H]3[C@@H](O)C[C@H](O[C@H]4CC[C@@]5(C)[C@H](CC[C@@H]6[C@@H]5C[C@@H](O)[C@]5(C)[C@@H](C7=CC(=O)OC7)CC[C@]65O)C4)O[C@@H]3C)O[C@@H]2C)C[C@H](O)[C@@H]1O [DIGOXIN]
Ratio: 72
